From article PMC8478281, “Targeting the FtsZ Allosteric Binding Site with a Novel Fluorescence Polarization Screen, Cytological and Structural Approaches for Antibacterial Discovery” (Journal of Medicinal Chemistry, 2021)
≈ marks a conversion by molar mass, not a printed value. Where two headings read alike, the source gives them in different places.

Experiments:
[1] = molecular target: T1, BsFtsZ (Bacillus subtilis, UniProt P17865); test: Fluorescence anisotropy of probes after consecutive additions of FtsZ, GMPCPP, MgCl2 and PC190723; format: binding; conditions: for Fluorescence anisotropy (r): free probe: probe 10 μM in buffer; for Fluorescence anisotropy (r): + FtsZ (unassbld.) / Fluorescence anisotropy (r): + GMPCPP / Fluorescence anisotropy (r): + MgCl2 (polymer): probe 10 μM, FtsZ 10 μM; for Fluorescence anisotropy (r): + GMPCPP / Fluorescence anisotropy (r): + MgCl2 (polymer): GMPCPP 0.1 mM; for Fluorescence anisotropy (r): + MgCl2 (polymer): MgCl2 10 mM, 5–10 min
T1 construct: made in house
Procedure: (A) Fluorescence anisotropy values of the free probes (10 μM) in buffer, to which FtsZ (10 μM, unassembled) was added, followed by the slowly hydrolyzable GTP analogue GMPCPP (0.1 mM). BsFtsZ polymerization was then induced by the addition of MgCl2 (10 mM) and anisotropy values were recorded 5–10 min later. Nonfluorescent PC190723 (10 μM) was subsequently added to displace the fluorescent probe and anisotropy was measured 5 min later. (B) Fluorescence microscopy images of B. subtilis cells treated for 1.5 h with the minimal division inhibitory concentrations (MDC) of (S)-2 and each enantiomer of 5 (Table S1), acquired employing the probe fluorescence.
(§1) FtsZ from B. subtilis (BsFtsZ) was prepared as described previously.[35] FtsZ was assembled in 50 mM N-(2-hydroxyethyl)piperazine-N′-ethanesulfonic acid (HEPES)-KOH, 50 mM KCl, 1 mM ethylenediaminetetraacetic acid (EDTA), pH 6.8 (HEPES buffer) plus 10 mM MgCl2, and 1 mM GTP or 0.1 mM GMPCPP at 25 °C. FtsZ assembly was monitored by light scattering.[34]

[2] = molecular target: T2, FtsZ-GMPCPP polymers (BsFtsZ) (Bacillus subtilis, UniProt P17865); test: Binding titration of the fluorescent probes to FtsZ polymers by fluorescence anisotropy; conditions: for Imax/Imin / rmax (all probe bound) / rmin (free probe) / Kd: FtsZ-GMPCPP polymers, best fit values from binding titrations
T2 construct: made in house
Procedure: as §1
The fluorescence spectra and anisotropy values of the different probes were acquired with a Fluoromax-4 (Horiba Jobin Yvon) photon-counting L-format spectrofluorometer using 2 mm × 10 mm cells at 25 °C, employing the maximum excitation and emission wavelength for each probe with 2 and 5 nm bandwidths, respectively. Anisotropy values were automatically measured as r = (Ivv – G Ivh)/(Ivv + 2G Ivh), where the subscripts refer to the vertical (v) or horizontal (h) positions of the excitation (first subscript) and emission (second subscript) polarizers, and G = Ihv/Ihh. Total intensity values were simultaneously determined as IT = Ivv +2G Ivh. Note that measurement correction procedures with T-format (double channel) fluorometers and with plate readers are slightly different.
(§2) FtsZ (10–15 μM) was assembled in HEPES buffer, 10 mM MgCl2, 50 μM GMPCPP at 25 °C for 10 min, and then 0.15% (v/v) glutaraldehyde[36] (distilled grade for microscopy, TAAB Laboratories, U.K.) was added to the solution that was incubated at 25 °C for 10 min more. (This was the minimal glutaraldehyde concentration determined to stabilize FtsZ polymers specifically binding probe 1.) The remains of the cross-linking agent were quenched by adding 60 mM NaBH4, the sample was incubated on ice for 10 min and degassed.[36] Cross-linked polymers were centrifuged for 10 min at 8200g (5000 rpm) and 4 °C in 15 mL Falcon tubes employing a Rotina 380R (Hettich) centrifuge, the supernatant was removed and the pellet was resuspended in the same volume of HEPES buffer, 10 mM MgCl2, containing 5 μM GMPCPP. Fixed FtsZ polymers were active in binding assays after more than 2 days at 4 °C; they could also be frozen in liquid nitrogen with a small loss of binding capacity. […] Cross-linked polymers of SaFtsZ were similarly prepared.
Binding affinity of the probes to FtsZ was measured by an increase in anisotropy of the probe (adapted from ref ([49])). Fixed concentrations of the probes (3 μM) were titrated with different FtsZ polymer concentrations (0–40 μM) in HEPES buffer with Mg^2+, to obtain the anisotropy increment, Δrmax, corresponding to the bound probe. The increase in anisotropy was plotted against the FtsZ polymer concentration (calculated by subtracting from the total protein concentration the critical concentration for polymerization under the same conditions) and iteratively least-squares fitted with an isotherm of binding to one site. The estimated values of Δrmax were used to approximate the free FtsZ concentrations, and these new values were employed again until an unchanging Δrmax value was obtained. The convergent data were used to calculate the binding constant of the fluorescent probe to FtsZ polymers (Table S1).

[3] = test system: B. subtilis; test: Minimal division inhibitory concentration and cell division phenotype, B. subtilis; format: cell-based, Bacillus subtilis; conditions: for toxicity to the bacterial cells, in words: B. subtilis cell division tests; for minimal effective concentration: Bacillus subtilis, read-out: MDC B. subtilis
Procedure: (§3) B. subtilis 168 and Staphylococcus spp. were grown in cation adjusted Mueller–Hinton broth (CAMHB; Becton, Dickinson and Company) at 37 °C. B. subtilis SU570 were grown in the same medium at 30 °C. In all cases, the cells were grown to an absorbance of 0.1–0.2 at 600 nm and then incubated either with the compounds or DMSO vehicle. Microscopy assays and cell measurement were performed as previously described.[31] MIC values were determined by a broth macrodilution method.[51] MBC values were determined as the lowest concentration of inhibitor at which there was a 99.9% reduction in colony-forming units/mL compared to the inoculum. To construct a S. aureus strain expressing FtsZ-mCherry, the plasmid pCN-ftsZmch[9] was electroporated into RN4220 and 0.1 μM cadmium chloride (Sigma-Aldrich) was used to induce the expression of the construct under the control of the Pcad promoter.

[4] = test system: B. subtilis; test: Minimal growth inhibitory concentration (broth macrodilution), B. subtilis; format: cell-based, Bacillus subtilis; conditions: for MIC B. subtilis: Table S1, fluorescent probes; for MIC: Bacillus subtilis
Procedure: as §3

[5] = test system: S. aureus Mu50; test: Minimal growth inhibitory concentration (broth macrodilution), S. aureus Mu50; format: cell-based, Staphylococcus aureus; conditions: for MIC S. aureus Mu50: Table S1, fluorescent probes; for MIC: Staphylococcus aureus, MU50, read-out: MIC S. aureus Mu50
Procedure: as §3

[6] = Solubility in HEPES buffer with 2% DMSO, spectrophotometric; format: physicochemical; conditions: HEPES buffer containing 2% DMSO, 25 °C, aqueous buffer, kinetic from dmso stock; HEPES buffer pH 6.8 containing 2% DMSO
Procedure: 3.2. Solubility of Compounds. Stock solutions of compounds were prepared in
DMSO (spectroscopic grade, Merck) a nd stored at -20 °C. Compound solubility in 50
mM HEPES-KOH, 50 mM KCl, 1 mM EDTA, pH 6.8 (HEPES buffer) containing 2%
DMSO was determined spectrophotometrically, monitoring the linear correlation
between the absorbance and the compound concentration and the absence of light
scattering. The solutions were optionally centrifuged at 100000 rpm for 20 min at 25 °C
in a TLA100 rotor with a Beckman Optima Max -XP ultracentrifuge.

[7] = molecular target: T3, stabilized polymers of FtsZ from B. subtilis (Bacillus subtilis, UniProt P17865); test: Competition assay: displacement of probe (R)-5 from stabilized BsFtsZ-GMPCPP polymers; format: binding; conditions: for Kd: stabilized polymers of FtsZ from B. subtilis, probe (R)-5, mean ± SEM, read-out: KD
T3 construct: made in house
Procedure: as §2
Competition assays were performed by measuring, through the decrease in fluorescence anisotropy, the displacement of the fluorescent probes from stabilized FtsZ polymers. Increasing concentrations of competing ligands were added to the mixtures of cross-linked FtsZ polymers (10–15 μM) with probe 1 (3 μM), 7–8 μM FtsZ polymers with probe (S)-2 (3 μM), or 2–3 μM FtsZ polymers with (R)-5 (3 μM). HEPES buffer with 10 mM MgCl2 and 0.1 mM GMPCPP was employed, with a final volume of 0.5 mL, and the anisotropy measured at 25 °C. Under these conditions, the initial fraction of the probe bound was between 0.4 and 0.5. The fraction of the probe bound (Vb) was calculated [drawing 1] where rfree and rmax are the anisotropy values of the free and bound probes, respectively, and R is the ratio between the fluorescence intensities of the bound and free probe (Table S1). The binding data were plotted against the competing ligand concentration and fitted by competition equilibrium of the ligand and the probe for the same binding site. The resulting system of equations[50] was numerically solved using the Equigra v. 5.0 program,[33] which provided the best-fitted value of the competitor binding constant.

[8] = PC190723 10 μM added to the polymer, 5 min

T2 sequence (P17865 whole entry): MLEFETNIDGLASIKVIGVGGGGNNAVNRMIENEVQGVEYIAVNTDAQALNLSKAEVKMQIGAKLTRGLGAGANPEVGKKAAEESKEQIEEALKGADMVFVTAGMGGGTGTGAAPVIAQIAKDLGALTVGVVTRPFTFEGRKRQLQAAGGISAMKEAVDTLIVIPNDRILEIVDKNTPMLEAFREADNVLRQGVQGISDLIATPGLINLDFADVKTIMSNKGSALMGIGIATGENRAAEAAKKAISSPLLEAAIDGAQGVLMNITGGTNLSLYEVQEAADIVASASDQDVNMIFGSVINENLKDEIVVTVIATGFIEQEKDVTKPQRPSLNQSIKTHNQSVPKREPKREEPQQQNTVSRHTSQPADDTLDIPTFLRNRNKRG
T1 sequence (P17865 whole entry): as above
T3 sequence (P17865 whole entry): as above

## 2,6-Difluoro-3-[(1-{[(7-nitro-2,1,3-benzoxadiazol-4-yl)amino]methyl}nonyl)-oxy]benzamide [Compound 4]
[1]; [8]
  Fluorescence anisotropy (r): + PC190723: 0.324
[1]
  Fluorescence anisotropy (r): free probe: 0.045
  Fluorescence anisotropy (r): + FtsZ (unassbld.): 0.130
  Fluorescence anisotropy (r): + GMPCPP: 0.186
  Fluorescence anisotropy (r): + MgCl2 (polymer): 0.317

## CCC[C@H](CNc1ccc([N+](=O)[O-])c2nonc12)Oc1ccc(F)c(C(N)=O)c1F [(R)-2]
[2]
  Imax/Imin: 1.0
  rmax (all probe bound): 0.067
  rmin (free probe): 0.038
[1]; [8]
  Fluorescence anisotropy (r): + PC190723: 0.051
[1]
  Fluorescence anisotropy (r): free probe: 0.037
  Fluorescence anisotropy (r): + FtsZ (unassbld.): 0.046
  Fluorescence anisotropy (r): + GMPCPP: 0.050
  Fluorescence anisotropy (r): + MgCl2 (polymer): 0.081
[3]
  inhibition of B. subtilis cell division, in words: inactive
[4]
  MIC B. subtilis: > 250 µM
[5]
  MIC S. aureus Mu50: > 250 µM

## CCC[C@@H](CNc1ccc([N+](=O)[O-])c2nonc12)Oc1ccc(F)c(C(N)=O)c1F [(S)-2]
[2]
  Imax/Imin: 2.4
  rmax (all probe bound): 0.258
  rmin (free probe): 0.028
  Kd: 8 ± 1 µM
[1]; [8]
  Fluorescence anisotropy (r): + PC190723: 0.065
[1]
  Fluorescence anisotropy (r): free probe: 0.037
  Fluorescence anisotropy (r): + FtsZ (unassbld.): 0.041
  Fluorescence anisotropy (r): + GMPCPP: 0.044
  Fluorescence anisotropy (r): + MgCl2 (polymer): 0.172
[4]
  MIC B. subtilis: 250 µM (≈ 105 µg/mL)
[5]
  MIC S. aureus Mu50: > 250 µM

## CCC[C@@H](COc1ccc(F)c(C(N)=O)c1F)Nc1ccc([N+](=O)[O-])c2nonc12 [(S)-5]
[2]
  fold reduced affinity with respect to (R)-5: 8 fold
  Imax/Imin: 1.7
  rmax (all probe bound): 0.178
  rmin (free probe): 0.025
  Kd: 15 ± 2 µM
[1]; [8]
  Fluorescence anisotropy (r): + PC190723: 0.038
[1]
  Fluorescence anisotropy (r): free probe: 0.030
  Fluorescence anisotropy (r): + FtsZ (unassbld.): 0.042
  Fluorescence anisotropy (r): + GMPCPP: 0.041
  Fluorescence anisotropy (r): + MgCl2 (polymer): 0.096
[4]
  MIC B. subtilis: 250 µM (≈ 105 µg/mL)
[5]
  MIC S. aureus Mu50: > 250 µM

## CCCC(CNc1ccc([N+](=O)[O-])c2nonc12)Oc1ccc(F)c(C(N)=O)c1F (stereo not drawn) [Compound 2, 2,6-Difluoro-3-[(1-{[(7-nitro-2,1,3-benzoxadiazol-4-yl)amino]methyl}butyl)oxy]benzamide]
[1]; [8]
  Fluorescence anisotropy (r): + PC190723: 0.053
[1]
  Fluorescence anisotropy (r): free probe: 0.037
  Fluorescence anisotropy (r): + FtsZ (unassbld.): 0.039
  Fluorescence anisotropy (r): + GMPCPP: 0.046
  Fluorescence anisotropy (r): + MgCl2 (polymer): 0.157

## CCCCCC(CNc1ccc([N+](=O)[O-])c2nonc12)Oc1ccc(F)c(C(N)=O)c1F (stereo not drawn) [Compound 3, 2,6-Difluoro-3-[(1-{[(7-nitro-2,1,3-benzoxadiazol-4-yl)amino]methyl}hexyl)oxy]benzamide]
[1]; [8]
  Fluorescence anisotropy (r): + PC190723: 0.135
[1]
  Fluorescence anisotropy (r): free probe: 0.049
  Fluorescence anisotropy (r): + FtsZ (unassbld.): 0.104
  Fluorescence anisotropy (r): + GMPCPP: 0.115
  Fluorescence anisotropy (r): + MgCl2 (polymer): 0.261

## CCCC(COc1ccc(F)c(C(N)=O)c1F)Nc1ccc([N+](=O)[O-])c2nonc12 (stereo not drawn) [Compound 5, 2,6-Difluoro-3-{2-[(4-nitro-2,1,3-benzoxadiazol-7-yl)amino]pentoxy}benzamide]
[1]; [PC190723] = 30 μM
  Fluorescence anisotropy (r): + PC190723: 0.055
[1]
  Fluorescence anisotropy (r): free probe: 0.031
  Fluorescence anisotropy (r): + FtsZ (unassbld.): 0.034
  Fluorescence anisotropy (r): + GMPCPP: 0.036
  Fluorescence anisotropy (r): + MgCl2 (polymer): 0.203

## CCCN(Cc1cccc(Cl)c1)c1cccc(C(N)=O)c1 [Compound 8]
[3]
  toxicity to the bacterial cells, in words: toxic to the bacterial cells
[6]
  solubility: 5 µM (≈ 1.51 µg/mL)

## NC(=O)c1cccc(OCc2cccc(Cl)c2)c1 [Compound 11]
[7]
  fold lower KD and MDC than 3-aminobenzamide analogue 6: more than 10 fold
  Kd: 9.3 ± 0.5 µM
[3]
  minimal effective concentration: 50 µM
[4]; read-out: MIC B. subtilis
  MIC: 50 µM (≈ 13.1 µg/mL)
[5]
  MIC: > 100 µM
[6]
  solubility: 100 µM (≈ 26.2 µg/mL)

## NC(=O)c1cccc(OCCc2cccc(Cl)c2)c1 [Compound 12]
[7]
  Kd: 7.1 ± 0.5 µM
[3]
  minimal effective concentration: 50 µM
[4]; read-out: MIC B. subtilis
  MIC: 100 µM (≈ 27.6 µg/mL)
[5]
  MIC: > 100 µM
[6]
  solubility: ≥ 100 µM

## NC(=O)c1ccc(OCc2cccc(Cl)c2)cc1 [Compound 14]
[3]
  toxicity to the bacterial cells, in words: toxic
[4]
  MIC: > 500 µM
